Results as given in patent publication US8022207B2, “Compound having affinity to amyloid” (Nihon Medi-Physics Co., Ltd., priority 2006, dated 2011).
Where two headings read alike, the source gives them in different places. Each block holds one compound with its values, some of them ahead of it.

What was measured:
[1] = system: Salmonella typhimurium TA98; experiment: Reverse mutation test (Ames test), TA98; format: cell-based; settings: maximum 5000 μg/plate
Protocol: (§1) In order to examine mutagenicity of Compounds 1, 2 and 4, reverse mutation test using Salmonella typhimurium TA98 and TA100 (hereinafter referred to as Ames test) was conducted.
(§2) The test was conducted without addition of S9mix and with addition of S9mix. Dimethylsulfoxide was used as a negative control. A positive control was 2-(2-furyl)-3-(5-nitro-2-furyl)acrylamide in case S9mix was not added, and 2-aminoanthracene in case S9 mix was added.
(§3) The amount of each sample to be added to the test plate was 7 dosages (geometric ratio 4) with the maximum dose being 5000 μg/plate. After a sample to be examined and a strain (TA98 or TA100), or a sample to be examined, S9mix and the strain were mixed together, the mixture was multilayered using soft agar on a medium of a test plate, and then incubated at 37° C. for 48 hours.
(§4) In order to examine mutagenicity of Compound 8, reverse mutation test using Salmonella typhimurium TA98 and TA100 (hereinafter referred to as Ames test) was conducted.
(§5) The test was conducted without addition of S9mix and with addition of S9mix. Dimethylsulfoxide was used as a negative control. A positive control was 2-(2-furyl)-3-(5-nitro-2-furyl)acrylamide in case S9mix was not added, and 2-aminoanthracene in case S9mix was added.
as §3, with “Compound 8” for “each sample”, “3)” for “4)”, “Compound 8” for “a sample to be examined”, “Compound 8,” for “a sample to be examined,”

[2] = system: Salmonella typhimurium TA100; experiment: Reverse mutation test (Ames test), TA100; format: cell-based; settings: maximum 5000 μg/plate
Protocol: as §1, §2, §3, §4, §5
as §3, with “Compound 8” for “each sample”, “3)” for “4)”, “Compound 8” for “a sample to be examined”, “Compound 8,” for “a sample to be examined,”

[3] = system: Salmonella typhimurium TA98 and TA100; experiment: Reverse mutation test (Ames test), overall judgment; format: cell-based; settings: TA98 and TA100, regardless of addition of S9mix
Protocol: as §1, §2, §3, §4, §5
as §3, with “Compound 8” for “each sample”, “3)” for “4)”, “Compound 8” for “a sample to be examined”, “Compound 8,” for “a sample to be examined,”

[4] = Partition coefficient based on the octanol extraction method (logPoctanol); format: physicochemical; settings: octanol / 10 mmol/L phosphate buffer (pH 7.4), radioactivity count
Protocol: Using the obtained radioactivity count, logPoctanol was calculated in accordance with the equation (2).

[5] = Transferability into brain and clearance (Example I-16, Comparative Example I-7); settings: brain, rats, intravenous injection
Protocol: Using Compound 6, a time course change of radioactive accumulation in brain of male Wistar rats (7-week old) was measured.
Also, radioactivity (hereinafter referred to as B in this Example) of 0.05 mL of a 1000-fold diluted solution of the injected solution was measured in the same manner as above. Using these measurement results, radioactive accumulation per unit weight of brain (% ID/g) at the respective time points was calculated in accordance with the following formula (5).

[6] = molecular target: intracerebral amyloid (aggregated Aβ1-40 injected into amygdaloid nucleus) (Homo sapiens, UniProt P05067); settings: rat, Aβ1-40 amyloid suspension in amygdaloid nucleus, brain removed 60 minutes after tail vein injection
Protocol: The following experiment was carried out in order to examine whether amyloid in brain can be imaged by the compound of the present invention.
The rats were examined 1 day after the injection of the amyloid suspension and the phosphate buffered physiological saline solution (pH 7.4).
(§6) (4) Brain was removed 60 minutes after the injection to prepare a brain slice of 10 μm in thickness with a microtome (type: CM3050S, manufactured by LEICA). The brain slice was exposed to an imaging plate for 20 hours, and then image analysis was carried out by use of a Bio-imaging Analyzer (type: BAS-2500; manufactured by FUJIFILM Corporation).

[7] = Transferability into brain and clearance (Example II-11, II-12, Comparative Example II-1); format: in vivo, male Wistar rats; settings: brain, rats, intravenous injection
Protocol: The rats were sacrificed by bleeding from abdominal artery, and brains were removed and subjected to measurement of mass of brains and further subjected to measurement of radioactivity (hereinafter referred to as A in this Example) with a single channel analyzer (detector type: SP-20 manufactured by OHYO KOKEN KOGYO Co., Ltd.) 2, 5, 30 and 60 minutes after the injection. Also, radioactivity (hereinafter referred to as B in this Example) of the rest of the whole body was measured in the same manner as above. Using these measurement results, radioactive accumulation per unit weight of brain (% ID/g) at the respective time points were calculated in accordance with the following formula (6).
Three animals were used for experiment at the respective time points.

[8] = molecular target: T1, intracerebral amyloid (aggregated Aβ1-42 injected into amygdaloid nucleus) (Homo sapiens, UniProt P05067); experiment: Ex vivo autoradiogram using rats of amyloid injected model (aggregated Aβ1-42); parameters: species or system male Wistar rat; settings: rat, Aβ1-42 amyloid suspension in amygdaloid nucleus, brain removed 60 minutes after tail vein injection
T1 construct: Aβ1-42 (manufactured by Peptide Institute, Inc.) was dissolved in phosphate buffer (pH 7.4); purchased Peptide Institute, Inc
Protocol: As a control, 2.5 μL of a phosphate buffered physiological saline solution (pH 7.4) was injected into an amygdaloid nucleus on the other side of the rat. The rats were examined 1 day after the injection of the amyloid suspension and the phosphate buffered physiological saline solution (pH 7.4).
as §6

[9] = International Publication WO03/106439 pamphlet; cited from earlier work
[10] = [^125I]-labeled, normal mice, brain; cited from earlier work
[11] = [^125I]-labeled compounds; cited from earlier work
[12] = [^11C]-labeled, rats; cited from earlier work

T1 sequence (P05067 672-713): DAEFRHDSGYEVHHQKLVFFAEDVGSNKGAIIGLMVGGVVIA
intracerebral amyloid (aggregated Aβ1-40 injected into amygdaloid nucleus), sequence (P05067 672-711): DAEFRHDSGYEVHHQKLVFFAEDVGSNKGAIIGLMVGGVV

SMILES: Oc1ccc(-c2cn3cc(Br)ccc3n2)cc1 [Compound 1, 6-bromo-2-(4′-hydroxyphenyl)imidazo[1,2-a]pyridine]
- Mutagenicity, With addition of S9mix, TA98 ([1]; 7 dosages (geometric ratio 4)): Negative
- Mutagenicity, Without addition of S9mix, TA98 ([1]; 7 dosages (geometric ratio 4)): Negative
- Mutagenicity, With addition of S9mix, TA100 ([2]; 7 dosages (geometric ratio 4)): Negative
- Mutagenicity, Without addition of S9mix, TA100 ([2]; 7 dosages (geometric ratio 4)): Negative
- Judgment in the Ames test (mutagenicity) [3]: negative

SMILES: Oc1ccc(-c2cn3cc(I)ccc3n2)cc1 [Compound 2, 2-(4′-hydroxyphenyl)-6-iodoimidazo[1,2-a]pyridine]
- Mutagenicity, With addition of S9mix, TA98 ([1]; 7 dosages (geometric ratio 4)): Negative
- Mutagenicity, Without addition of S9mix, TA98 ([1]; 7 dosages (geometric ratio 4)): Negative
- Mutagenicity, With addition of S9mix, TA100 ([2]; 7 dosages (geometric ratio 4)): Negative
- Mutagenicity, Without addition of S9mix, TA100 ([2]; 7 dosages (geometric ratio 4)): Negative
- Judgment in the Ames test (mutagenicity) [3]: negative

SMILES: Oc1ccc(-c2cn3cc(I)cnc3n2)cc1 [Compound 4, 2-(4′-hydroxyphenyl)-6-iodoimidazo[1,2-a]pyrimidine]
- Mutagenicity, With addition of S9mix, TA98 ([1]; 7 dosages (geometric ratio 4)): Negative
- Mutagenicity, Without addition of S9mix, TA98 ([1]; 7 dosages (geometric ratio 4)): Negative
- Mutagenicity, With addition of S9mix, TA100 ([2]; 7 dosages (geometric ratio 4)): Negative
- Mutagenicity, Without addition of S9mix, TA100 ([2]; 7 dosages (geometric ratio 4)): Negative
- Judgment in the Ames test (mutagenicity) [3]: negative

SMILES: Oc1ccc(-c2cn3cc([125I])ccc3n2)cc1 [Compound 5, [^125I]-2-(4′-hydroxyphenyl)-6-iodoimidazo[1,2-a]pyridine]
- logPoctanol value [4]: 1.6

SMILES: Oc1ccc(-c2cn3cc([123I])ccc3n2)cc1 [Compound 6, [^123I]-2-(4′-hydroxyphenyl)-6-iodoimidazo[1,2-a]pyridine]
- Radioactive accumulation per unit weight, After 2 min. [5]: 0.96 % ID/g
- Radioactive accumulation per unit weight, After 5 min. [5]: 0.69 % ID/g
- Radioactive accumulation per unit weight, After 30 min. [5]: 0.16 % ID/g
- Radioactive accumulation per unit weight, After 60 min. [5]: 0.04 % ID/g
- Accumulation of radioactivity on intracerebral amyloid (autoradiogram of brain slice) [6]: possesses a property of accumulating on intracerebral amyloid

SMILES: Oc1ccc(-c2cn3cc(I)ncc3n2)cc1 [Compound 8, 2-(4′-hydroxyphenyl)-6-iodoimidazo[1,2-a]pyrazine]
- Mutagenicity, With addition of S9mix, TA98 ([1]; 7 dosages (geometric ratio 3)): Negative
- Mutagenicity, Without addition of S9mix, TA98 ([1]; 7 dosages (geometric ratio 3)): Negative
- Mutagenicity, With addition of S9mix, TA100 ([2]; 7 dosages (geometric ratio 3)): Negative
- Mutagenicity, Without addition of S9mix, TA100 ([2]; 7 dosages (geometric ratio 3)): Negative
- Judgment in the Ames test (mutagenicity) [3]: negative

- logPoctanol value [4]: 1.7
SMILES: Oc1ccc(-c2cn3cc([123I])cnc3n2)cc1 [Compound 9, [^123I]-2-(4′-hydroxyphenyl)-6-iodoimidazo[1,2-a]pyrimidine]

- logPoctanol value [4]: 2.3
- Radioactive accumulation per unit weight, After 2 min. [7]: 0.62 % ID/g
- Radioactive accumulation per unit weight, After 5 min. [7]: 0.33 % ID/g
- Radioactive accumulation per unit weight, After 30 min. [7]: 0.08 % ID/g
- Radioactive accumulation per unit weight, After 60 min. [7]: 0.02 % ID/g
- Accumulation of radioactivity in the amygdaloid nucleus on the amyloid-injected side (autoradiogram of brain slice) [8]: marked accumulation of radioactivity
SMILES: Oc1ccc(-c2cn3cc([123I])ncc3n2)cc1 [Compound 10, [^123I]-2-(4′-hydroxyphenyl)-6-iodoimidazo[1,2-a]pyrazine]

- logPoctanol value [4]: 3.0
- Radioactive accumulation per unit weight, After 2 min. [7]: 0.65 % ID/g
- Radioactive accumulation per unit weight, After 5 min. [7]: 0.43 % ID/g
- Radioactive accumulation per unit weight, After 30 min. [7]: 0.09 % ID/g
- Radioactive accumulation per unit weight, After 60 min. [7]: 0.03 % ID/g
- Accumulation of radioactivity in the amygdaloid nucleus on the amyloid-injected side (autoradiogram of brain slice) [8]: marked accumulation of radioactivity
SMILES: Oc1ccc(-c2cn3cccc([123I])c3n2)cc1 [Compound 11, [^123I]-2-(4′-hydroxyphenyl)-8-iodoimidazo[1,2-a]pyridine]

SMILES: CC(=C(C#N)C#N)c1ccc2cc(N(C)CCF)ccc2c1 [FDDNP, 2-(1-{6-[(2-fluoroethyl)(methyl)amino]-2-naphthyl}ethylidene)malononitrile]
- Reverse mutation test result [9]: positive

SMILES: CN(C)c1ccc(-c2nc3ccc(I)cc3o2)cc1 [IBOX, 6-iodo-2-[4′-(N,N-dimethylamino)phenyl]benzoxazole]
- Clearance from normal tissues [10]: insufficient in clearance from normal tissues

SMILES: CN(C)c1ccc(-c2cn3cc(I)ccc3n2)cc1 [IMPY, 6-iodo-2-[4′-(N,N-dimethylamino)phenyl]imidazo[1,2-a]pyridine]
- Reverse mutation test result [9]: positive
- Clearance from normal tissues [11]: rapid clearance from normal tissues

SMILES: CNc1ccc(/C=C/c2ccc(O)cc2)cc1 [SB-13, (E)-4-methylamino-4′-hydroxystilbene]
- Clearance from normal tissues [12]: it cannot be said that the clearance is sufficiently fast

SMILES: CN(C)c1ccc(-c2nc3ccc(I)cc3s2)cc1 [TZDM, 6-iodo-2-[4′-(N,N-dimethylamino)phenyl]benzothiazole]
- Clearance from normal tissues [10]: insufficient in clearance from normal tissues

SMILES: CN(C)c1ccc(-c2cn3cc([125I])ccc3n2)cc1 [[^125I]-IMPY, reference compound]
- logPoctanol value [4]: 2.1

SMILES: CN(C)c1ccc(-c2cn3cc([123I])ccc3n2)cc1 [^123I-IMPY, reference compound]
- Radioactive accumulation per unit weight, After 2 min. [5]: 1.02 % ID/g
- Radioactive accumulation per unit weight, After 5 min. [5]: 0.99 % ID/g
- Radioactive accumulation per unit weight, After 30 min. [5]: 0.20 % ID/g
- Radioactive accumulation per unit weight, After 60 min. [5]: 0.08 % ID/g
- Radioactive accumulation per unit weight, After 2 min. [7]: 1.19 % ID/g
- Radioactive accumulation per unit weight, After 5 min. [7]: 0.97 % ID/g
- Radioactive accumulation per unit weight, After 30 min. [7]: 0.23 % ID/g
- Radioactive accumulation per unit weight, After 60 min. [7]: 0.09 % ID/g

SMILES: CN(C)c1ccc(/C=C/c2ccc(I)cc2)cc1 [m-I-SB, (E)-4-dimethylamino-4′-iodostilbene]
- Clearance from normal tissues [10]: insufficient in clearance from normal tissues
